Measured values from publication PMC6916368, “Cell‐Based Optimization of Covalent Reversible Ketoamide Inhibitors Bridging the Unprimed to the Primed Site of the Proteasome β5 Subunit” (Chemmedchem, 2019).
Peptide text beside a SMILES is read from it. * marks the point of attachment. Cbz = O=C(OCc1ccccc1)*; OtBu = CC(C)(C)O*

Tests used:
MV4‐11 cells = assay: Cell viability endpoint assay (Celltiter Blue, 72 h); assay type: cell-based; conditions: for IC50: Homo sapiens, MV4-11, mean±SD from two independent experiments
Method: Cell lines. MV4‐11 (ACC 102), Jurkat (ACC 282) and THP‐1 (ACC 16) cells were obtained from DSMZ and maintained at 37 °C and 5 % CO2 at densities between 0.2–1×10^6 cells per mL in RMPI‐1640 medium supplemented with 10 % FBS, L‐glutamine (2 mM) and penicillin/streptomycin.
Cell viability endpoint assay. For the determination of cytotoxicity of proteasome inhibitors 50.000 cells per well were plated in 90 μl RPMI‐1640 medium supplemented with 0.1 % FBS and incubated overnight at 37 °C and 5 % CO2. Inhibitors were serially diluted in RPMI‐1640 medium as 10‐fold stocks and added to cells giving the final concentration (1 nM to 10 μM, Figure S2–S4) and incubated for 72 h at 37 °C and 5 % CO2. Cell viability was determined using the Celltiter Blue assay (Promega) by adding 20 μl of reagent, incubation for 120 minutes at 37 °C and 5 % CO2 and fluorescent read‐out using a Tecan M1000 microplate reader. Dose‐response curves were fitted to the equation “Y=Bottom+(Top‐Bottom)/(1+10^(X−L°^gIC50))” using GraphPad Prism 7.02. IC50 values are determined from technical triplicates as mean value of two independent experiments. Standard deviations (Table S1) as well as dose response curves (SI chapter 2b) are given in the supplementary information.

[1] = molecular target: T1, β5c subunit of isolated human 20S proteasome (Homo sapiens, UniProt P28074); assay: Proteasome inhibition assay (20 S Proteasome Assay Kit, Suc‐LLVY‐AMC); assay type: biochemical; conditions: for inhibition at 1 µM: c = 1 µM, n=1, read-out: Inhibition cCP β5; for inhibition at 0.1 µM: c=100 nM, read-out: Rel. Inhibition β5c
T1 construct: purchased Enzo Life Sciences
Method: (§1) Proteasome inhibition assay. […] The 20 S Proteasome Assay Kit for Drug Discovery was used according to the supplier's protocol using Suc‐LLVY‐AMC (β5), Bz‐VGR‐AMC (β2) or Z‐LLE‐AMC (β1) as substrates (Enzo Life Sciences). Single point measurements of residual activity of proteasome activity were performed at a final concentration of 100 nM (n=3, β5c, β5i) or 1 μM (n=1, β1c, β2c, β5c, β5i, SI chapter 2a, Table S1). […] Inhibitors were prepared in 2‐fold concentration (cfinal=100 nM) and added to proteasomes (mfinal=200 ng/well). After 30 min incubation, substrate was added (cfinal=100 μM), incubated for 60 minutes and fluorescence was read using a Tecan M1000 microplate reader. […] IC50 values were determined from technical duplicates as mean value of three independent experiments.

[2] = molecular target: T2, β5i subunit of isolated human 20S proteasome (Homo sapiens, UniProt P28062); assay: as above; assay type: biochemical; conditions: for inhibition at 1 µM: c = 1 µM, n=1, read-out: Inhibition iCP β5; for inhibition at 0.1 µM: c=100 nM, read-out: Rel. Inhibition β5i
T2 construct: purchased Enzo Life Sciences
Method: as §1

[3] = molecular target: T3, β2c subunit of isolated human 20S proteasome (Homo sapiens, UniProt Q99436); assay: Proteasome inhibition assay (20 S Proteasome Assay Kit, Bz‐VGR‐AMC); assay type: biochemical; conditions: c = 1 µM, n=1; read-out: Inhibition cCP β2
T3 construct: purchased Enzo Life Sciences
Method: Proteasome inhibition assay. Bortezomib (Selleckchem) and carfilzomib (MedChemExpress) were purchased and used without further purification. The 20 S Proteasome Assay Kit for Drug Discovery was used according to the supplier's protocol using Suc‐LLVY‐AMC (β5), Bz‐VGR‐AMC (β2) or Z‐LLE‐AMC (β1) as substrates (Enzo Life Sciences). Single point measurements of residual activity of proteasome activity were performed at a final concentration of 100 nM (n=3, β5c, β5i) or 1 μM (n=1, β1c, β2c, β5c, β5i, SI chapter 2a, Table S1). […] Inhibitors were prepared in 2‐fold concentration (cfinal=100 nM) and added to proteasomes (mfinal=200 ng/well). After 30 min incubation, substrate was added (cfinal=100 μM), incubated for 60 minutes and fluorescence was read using a Tecan M1000 microplate reader. Dose‐response curves were fitted to the equation Y=100/(1+10^((L°^gIC50−X)*HillSl°^pe)) using GraphPad Prism 7.02. IC50 values were determined from technical duplicates as mean value of three independent experiments.

[4] = molecular target: T4, β1c subunit of isolated human 20S proteasome (Homo sapiens, UniProt P28072); assay: Proteasome inhibition assay (20 S Proteasome Assay Kit, Z‐LLE‐AMC); assay type: biochemical; conditions: c = 1 µM, n=1; read-out: Inhibition cCP β1
T4 construct: purchased Enzo Life Sciences
Method: as §1

Row | Structure (SMILES) | IC50 (MV4‐11 cells) [nM] | inhibition at 1 µM [1] [%] | inhibition at 0.1 µM [1] [%] | inhibition at 1 µM [2] [%] | inhibition at 0.1 µM [2] [%] | inhibition at 1 µM [3] [%] | inhibition at 1 µM [4] [%] | IC50 MV4‐11 (MV4‐11 cells; mean±SD from two independent experiments)
1 | CC(C)C[C@H](NC(=O)OCc1ccccc1)C(=O)N[C@@H](CC(C)C)C(=O)N[C@@H](CC(C)C)C(=O)C(=O)Nc1ccccc1Oc1ccccc1 [Compound 8, Benzyl‐((S)‐4‐methyl‐1‐(((S)‐4‐methyl‐1‐(((S)‐5‐methyl‐1,2‐dioxo‐1‐((2‐phenoxyphenyl)‐amino)hexan‐3‐yl)amino)‐1‐oxopentan‐2‐yl)amino)‐1‐oxopentan‐2‐yl)carbamate] | 203 ± 22 | 32 | 12 | 7 | 8 | -4 | -7 | –
2 | CC(C)C[C@H](NC(=O)OCc1ccccc1)C(=O)N[C@@H](CC(=O)OC(C)(C)C)C(=O)N[C@@H](CC(C)C)C(=O)C(=O)Nc1ccccc1 [Compound 16, tert ‐Butyl‐(S)‐3‐((S)‐2‐(((benzyloxy)carbonyl)amino)‐4‐methylpentanamido)‐4‐(((S)‐5‐methyl‐1,2‐dioxo‐1‐(phenylamino)hexan‐3‐yl)amino)‐4‐oxobutanoate] | 46 ± 6 | 91 | 57 | 76 | 48 | -8 | 12 | –
3 | CC(C)C[C@H](NC(=O)OCc1ccccc1)C(=O)N[C@@H](CC(=O)OC(C)(C)C)C(=O)N[C@@H](CC(C)C)C(=O)C(=O)Nc1cccc(Oc2ccccc2)c1 [Compound 19, tert ‐Butyl‐(S)‐3‐((S)‐2‐(((benzyloxy)carbonyl)amino)‐4‐methylpentanamido)‐4‐(((S)‐5‐methyl‐1,2‐dioxo‐1‐((3‐phenoxyphenyl)amino)hexan‐3‐yl)amino)‐4‐oxobutanoate] | 36 ± 5 | 84 | 53 | 31 | 43 | 9 | -15 | –
4 | CC(C)C[C@@H](C=O)NC(=O)[C@H](CC(C)C)NC(=O)[C@H](CC(C)C)NC(=O)Cn1cnc2ccccc2c1=O [Compound 22, (S)‐4‐Methyl‐N‐((S)‐4‐methyl‐1‐(((S)‐4‐methyl‐1‐oxopentan‐2‐yl)amino)‐1‐oxopentan‐2‐yl)‐2‐(2‐(4‐oxoquinazolin‐3(4H)‐yl)acetamido)pentanamide] | > 1000 | 43 | 6 | 28 | 11 | -10 | 28 | inactive
5 | Cc1c(NC(=O)C(=O)[C@H](CC(C)C)NC(=O)[C@H](CC(C)C)NC(=O)[C@H](CC(C)C)NC(=O)OCc2ccccc2)cccc1Oc1ccccc1 [Compound 14, Benzyl((S)‐4‐methyl‐1‐(((S)‐4‐methyl‐1‐(((S)‐5‐methyl‐1‐((2‐methyl‐3‐phenoxyphenyl)‐amino)‐1,2‐dioxohexan‐3‐yl)amino)‐1‐oxopentan‐2‐yl)amino)‐1‐oxopentan‐2‐yl)carbamate] | 27 ± 8 | 78 | 41 | 30 | 29 | 5 | -10 | –
6 | CC(C)C[C@@H](C=O)NC(=O)[C@H](CC(=O)OC(C)(C)C)NC(=O)[C@H](CC(C)C)NC(=O)OCc1ccccc1 [Compound 5, BSc2118, reference compound] (Cbz-Leu-Asp(OtBu)-Leu-aldehyde) | 123 ± 12 | 90 | 54 | 72 | 11 | 4 | 16 | –
7 | CC(C)C[C@@H](C=O)NC(=O)[C@H](CC(C)C)NC(=O)[C@H](CC(C)C)NC(=O)c1cnccn1 [Compound 23, N ‐((S)‐4‐Methyl‐1‐(((S)‐4‐methyl‐1‐(((S)‐4‐methyl‐1‐oxopentan‐2‐yl)amino)‐1‐oxopentan‐2‐yl)amino)‐1‐oxopentan‐2‐yl)pyrazine‐2‐carboxamide] | 145 ± 23 | 75 | 30 | 64 | 4 | 49 | 19 | –
